Results published in patent US8530404B2, “Compounds and methods for treatment of cancer” (FibroGen, Inc., priority 2005, dated 2013).

What was measured:
[1] = Body weight in H-460 xenograft mice (Example 1); assay type: in vivo, mouse
Protocol: Sizes of the primary tumors were measured through the skin with calipers once per week. Tumor volumes were calculated by the formula V═(W^2*L)/2. Body weight of the mice in each group was also measured once per week during the experimental period. All animals were sacrificed following thirty-two days of treatment. Primary tumors were excised and weighed on an electronic balance. Blood samples were taken during terminal sacrifice and placed in microhematocrit tubes containing EDTA. Complete Blood Counts (CBC) and reticulocyte analysis were performed with the Cell Dyn 3700 analyzer (Abbott Diagnostics), as described by the manufacturer.
Thus, differences in tumor progression as measured by mean tumor volumes could not be attributed to any generalized toxicity or suppression of normal metabolism that might have been detected by changes in body weights.

human A549 lung tumors = experiment: Subcutaneously implanted human A549 lung tumor mouse xenograft (Example 2); assay type: in vivo
CDKN1C gene expression [2] = experiment: CDKN1C gene expression in Kelly neuroblastoma cells; assay type: cell-based; details: Kelly, read-out: fold-increase in CDKN1C mRNA expression
Protocol: (§1) To identify compounds useful in the methods of the present invention, the following studies were performed. The effect of compounds of the present invention on expression of various genes associated with anti-tumor activity (e.g., genes having anti-proliferative activity, genes having pro-apoptotic activity, genes having anti-tumor activity, etc.). In these experiments, the effect of compounds on BNIP3, BNIP3L, NDRG1, CDKN1C, and REDD1/RTP801 gene expression in various types of cultured tumor cells line was examined, including Hep3B cells (human hepatocellular carcinoma), Kelly neuroblastoma cells, and MCF7 cells (human breast cancer)
The effects of various compounds of the present invention on the expression of genes associated with tumor growth and progression were examined in Kelly neuroblastoma cells as follows. Kelly neuroblastoma cells were grown in RPMI media. For each experiment, Kelly neuroblastoma cells were added to 96-well tissue culture plates (approximately 40,000 cells per well) such that the plated cells reached confluence the following day. On the following day, the cells were washed and the media replaced with RPMI containing 0.5% FBS. Various compounds of the present invention were added to the cultured cells to a final concentration of 20 μM, and the cells cultured for an additional 20-24 hours. DMSO (0.5%) was added to control cell cultures.
RNA was isolated from the Kelly neuroblastoma cells using a commercial kit and used for the preparation of cDNA. BNIP3, CDKN1C, and 18S RNA levels were measured using commercial kits (18S, Applied Biosystems cat#4319413E); BNIP3, Applied Biosystems cat#HS00969293 MH). RNA levels for BNIP3 and CDKN1C were normalized to that of 18S RNA and is presented as fold-change compared to that observed in DMSO control cultures. Kelly cell NDRG1 and BNIP3L mRNA levels were measured by Affymetrix microarray in a separate study. Cells were harvested after 6 hours incubation with 20 μM test compound or DMSO (0.5%) as control. RNA was isolated and labeled probes were prepared and hybridized to U133 Plus 2.0 Affymetrix microarrays. Changes in gene expression levels are presented as fold change compared to that of control (0.5% DMSO-treated) cultures.

CDKN1C gene expression [3] = experiment: CDKN1C gene expression in MCF7 cells; assay type: cell-based; details: Homo sapiens, MCF7, read-out: fold-increase in CDKN1C mRNA expression
Protocol: as §1
(§2) The effects of various compounds of the present invention on the expression of genes associated with tumor growth and progression were examined in MCF7 breast cancer cells as follows. In some experiments, MCF7 (ATCC) cells were plated in 96-well tissue culture dishes (approximately 20,000 cells per well) and cultured in DMEM media supplemented with 10% serum. The following day, the cells were washed and the media was replaced with DMEM containing 0.5% FBS. Various compounds of the present invention were added to the cultured cells to a final concentration of 20 μM, and the cells cultured for an additional 20-24 hours. DMSO (0.5%) was added to control cell cultures. RNA was isolated as described above. Changes in gene expression levels are presented as fold change compared to that of control (0.5% DMSO-treated) cultures.

BNIP3 gene expression = BNIP3 gene expression in MCF7 cells; assay type: cell-based; details: Homo sapiens, MCF7, read-out: fold-increase in BNIP3 mRNA expression
Protocol: as §1, §2
In other experiments, MCF7 cells were plated in 96-well tissue culture dishes as described above. After 24 hours, the cells were washed and the media was replaced with DMEM containing 0.5% FBS. Various compounds of the present invention were added to the cultured cells to a final concentration of 20 μM. DMSO (0.5%) was added to control cell cultures. After 24 hours, changes in gene expression of BNIP3 and 18S RNA were determined directly using one-step quantitative multiplex RT-PCR reactions according to the manufacturer's instructions (QuantiTect Multiplex RT-PCR Kit, Qiagen, catalog no. 204643). Changes in gene expression levels are presented as fold change compared to that of control (0.5% DMSO-treated) cultures.

Structure (SMILES) | mean animal body weight ([1]; day 0, 20 mg/kg PO) | mean animal body weight ([1]; day 10, 20 mg/kg PO) | mean animal body weight ([1]; day 17, 20 mg/kg PO) | mean animal body weight ([1]; day 24, 20 mg/kg PO) | mean animal body weight ([1]; day 31, 20 mg/kg PO) | A549 mean tumor volume (human A549 lung tumors; week 5, 20 mg/kg PO) | A549 mean tumor volume (human A549 lung tumors; week 6, 20 mg/kg PO) | A549 mean tumor volume (human A549 lung tumors; week 7, 20 mg/kg PO) | A549 mean tumor volume (human A549 lung tumors; week 8, 20 mg/kg PO) | A549 mean tumor volume (human A549 lung tumors; week 9, 20 mg/kg PO) | fold induction at 20 µM (CDKN1C gene expression [2]) | fold induction at 20 µM (CDKN1C gene expression [3]) | fold induction at 20 µM (BNIP3 gene expression) | also measured
O=C(O)CNC(=O)c1nc(Cl)c2ccccc2c1O [Compound A, [(1-Chloro-4-hydroxy-isoquinoline-3-carbonyl)-amino]-acetic acid] | 25.2 grams | 30.1 grams | 30.5 grams | 30.6 grams | 30.3 grams | 375 mm^3 | 428 mm^3 | 523 mm^3 | 547 mm^3 | 615 mm^3 |  |  |  | mean animal body weight ([1]; day 0, 60 mg/kg PO): 24.5 grams; mean animal body weight ([1]; day 10, 60 mg/kg PO): 30.0 grams; mean animal body weight ([1]; day 17, 60 mg/kg PO): 30.5 grams; mean animal body weight ([1]; day 24, 60 mg/kg PO): 30.6 grams; mean animal body weight ([1]; day 31, 60 mg/kg PO): 29.9 grams; tumor weight at necropsy, Mean (human A549 lung tumors; 60 mg/kg PO): 0.81 g; A549 mean tumor volume (human A549 lung tumors; week 0, 60 mg/kg PO): 105 mm^3; A549 mean tumor volume (human A549 lung tumors; week 1, 60 mg/kg PO): 133 mm^3; A549 mean tumor volume (human A549 lung tumors; week 2, 60 mg/kg PO): 175 mm^3; A549 mean tumor volume (human A549 lung tumors; week 3, 60 mg/kg PO): 234 mm^3; A549 mean tumor volume (human A549 lung tumors; week 4, 60 mg/kg PO): 324 mm^3; A549 mean tumor volume (human A549 lung tumors; week 5, 60 mg/kg PO): 348 mm^3; A549 mean tumor volume (human A549 lung tumors; week 6, 60 mg/kg PO): 425 mm^3; A549 mean tumor volume (human A549 lung tumors; week 7, 60 mg/kg PO): 514 mm^3; A549 mean tumor volume (human A549 lung tumors; week 8, 60 mg/kg PO): 538 mm^3; A549 mean tumor volume (human A549 lung tumors; week 9, 60 mg/kg PO): 597 mm^3
C[C@H](NC(=O)c1ncc2cc(Oc3ccccc3)ccc2c1O)C(=O)O [Compound B, (S)-2-[(4-Hydroxy-7-phenoxy-isoquinoline-3-carbonyl)-amino]-propionic acid] | 25.7 grams | 27.8 grams | 29.0 grams | 29.3 grams | 29.3 grams |  |  |  |  |  | 91 | 0.5 | 4.5 | mean animal body weight ([1]; day 0, 6 mg/kg PO): 26.3 grams; mean animal body weight ([1]; day 10, 6 mg/kg PO): 27.9 grams; mean animal body weight ([1]; day 17, 6 mg/kg PO): 29.1 grams; mean animal body weight ([1]; day 24, 6 mg/kg PO): 29.3 grams; mean animal body weight ([1]; day 31, 6 mg/kg PO): 29.3 grams
COc1ccc(Oc2ccc3c(O)c(C(=O)NCC(=O)O)ncc3c2)cc1 [Compound C, {[4-Hydroxy-7-(4-methoxy-phenoxy)-isoquinoline-3-carbonyl]-amino}-acetic acid] | 25.7 grams | 29.4 grams | 29.9 grams | 31.0 grams | 30.9 grams | 246 mm^3 | 304 mm^3 | 341 mm^3 | 402 mm^3 | 429 mm^3 | 49 | 0.6 | 5 | 
Cc1nc(C(=O)NCC(=O)O)c(O)c2ccc(Oc3ccccc3)cc12 [Compound D, [(4-Hydroxy-1-methyl-7-phenoxy-isoquinoline-3-carbonyl)-amino]-acetic acid] |  |  |  |  |  | 272 mm^3 | 304 mm^3 | 373 mm^3 | 411 mm^3 | 466 mm^3 | 382 |  |  | tumor weight at necropsy, Mean (human A549 lung tumors; 6 mg/kg PO): 0.51 g; A549 mean tumor volume (human A549 lung tumors; week 0, 6 mg/kg PO): 109 mm^3; A549 mean tumor volume (human A549 lung tumors; week 1, 6 mg/kg PO): 137 mm^3; A549 mean tumor volume (human A549 lung tumors; week 2, 6 mg/kg PO): 178 mm^3; A549 mean tumor volume (human A549 lung tumors; week 3, 6 mg/kg PO): 209 mm^3; A549 mean tumor volume (human A549 lung tumors; week 4, 6 mg/kg PO): 263 mm^3; A549 mean tumor volume (human A549 lung tumors; week 5, 6 mg/kg PO): 292 mm^3; A549 mean tumor volume (human A549 lung tumors; week 6, 6 mg/kg PO): 339 mm^3; A549 mean tumor volume (human A549 lung tumors; week 7, 6 mg/kg PO): 375 mm^3; A549 mean tumor volume (human A549 lung tumors; week 8, 6 mg/kg PO): 431 mm^3; A549 mean tumor volume (human A549 lung tumors; week 9, 6 mg/kg PO): 476 mm^3
O=C(O)CNC(=O)c1ncc2cc(Oc3ccc(F)cc3)ccc2c1O [Compound E, {[7-(4-fluoro-phenoxy)-4-hydroxy-isoquinoline-3-carbonyl]-amino}-acetic acid] |  |  |  |  |  |  |  |  |  |  | 184 | 0.4 | 5.3 | 
